Patent publication US5945422A, “N-oxides of amino containing pyrido [2,3-D] pyrimidines” (Warner-Lambert Company, priority 1998, dated 1999)

Legend:
Type in all cases: biochemical
[1] = target: T1, mouse PDGF-β receptor tyrosine kinase (Mus musculus, UniProt P05622); assay: PDGF receptor tyrosine kinase assay (PDGFr-TK); conditions: 10 min at 25° C., glutamate-tyrosine co-polymer substrate; read-out: PDGFr-TK inhibition, IC50
T1 construct: amplify a fragment of DNA that codes for the intracellular tyrosine kinase domain; made in house; host or cells: SF9 insect cells, baculovirus (cell lysate used)
T1 sequence (P05622 599-961 limits assumed): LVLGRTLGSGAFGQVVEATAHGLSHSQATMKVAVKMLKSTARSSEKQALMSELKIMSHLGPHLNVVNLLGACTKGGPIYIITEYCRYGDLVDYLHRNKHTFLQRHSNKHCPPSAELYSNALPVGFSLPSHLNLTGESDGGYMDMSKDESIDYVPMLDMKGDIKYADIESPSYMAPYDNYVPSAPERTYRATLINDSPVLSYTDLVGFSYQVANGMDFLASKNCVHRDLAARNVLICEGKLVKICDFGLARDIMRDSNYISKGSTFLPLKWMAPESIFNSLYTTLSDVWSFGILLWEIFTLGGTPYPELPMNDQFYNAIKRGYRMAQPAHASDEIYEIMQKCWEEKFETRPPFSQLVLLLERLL
Description: SF9 insect cells were infected with the virus to overexpress the protein, and the cell lysate was used for the assay. […] The reaction was terminated by the addition of 100 μL of 30% trichloroacetic acid (TCA) containing 20 mM sodium pyrophosphate and precipitation of material onto glass fiber filter mats (Wallac). […] Nonspecific activity was defined as radioactivity retained on the filters following incubation of samples with buffer alone (no enzyme). Specific enzymatic activity was defined as total activity (enzyme plus buffer) minus nonspecific activity.

[2] = target: T2, human FGF-1 (flg) receptor tyrosine kinase (Homo sapiens, UniProt P11362); assay: FGF receptor tyrosine kinase assay (FGFr-TK); conditions: 10 min at 25° C., glutamate-tyrosine co-polymer substrate; read-out: FGFr-TK inhibition, IC50
T2 construct: amplify a fragment of DNA that codes for the intracellular tyrosine kinase domain; made in house; host or cells: SF9 insect cells, baculovirus (cell lysate used)
T2 sequence (P11362 478-767 limits assumed): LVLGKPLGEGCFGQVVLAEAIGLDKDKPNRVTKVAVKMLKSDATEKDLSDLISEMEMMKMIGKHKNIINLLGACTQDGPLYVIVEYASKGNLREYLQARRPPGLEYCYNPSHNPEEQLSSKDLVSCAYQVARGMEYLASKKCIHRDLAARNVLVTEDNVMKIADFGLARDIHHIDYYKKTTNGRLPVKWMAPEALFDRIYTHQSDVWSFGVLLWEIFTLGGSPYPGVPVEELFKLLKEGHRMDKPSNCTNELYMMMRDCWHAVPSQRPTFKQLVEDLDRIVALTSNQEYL
Description: PDGF and FGF Receptor Tyrosine Kinase Assays
Full length cDNAs for the mouse PDGF-β and human FGF-1 (flg) receptor tyrosine kinases were obtained from J. Escobedo and prepared as described in J. Biol. Chem., 262:1482-1487 […], and PCR primers were designed to amplify a fragment of DNA that codes for the intracellular tyrosine kinase domain. The fragment was melded into a baculovirus vector, cotransfected with AcMNPV DNA, and the recombinant virus isolated. SF9 insect cells were infected with the virus to overexpress the protein, and the cell lysate was used for the assay. […] Briefly, to each well was added 82.5 μL of incubation buffer containing 25 mM Hepes (pH 7.0), 150 mM NaCl, 0.1% Triton X-100, 0.2 mM PMSF, 0.2 mM Na3 VO4, 10 mM MnCl2, and 750 μg/mL of Poly (4:1) glutamate-tyrosine followed by 2.5 μL of inhibitor and 5 μL of enzyme lysate (7.5 μg/μL FGF-TK or 6.0 μg/μL PDGF-TK) to initiate the reaction. Following a 10 minute incubation at 25° C., 10 μL of γ^32 P-ATP (0.4 μCi plus 50 μM ATP) was added to each well and samples were incubated for an additional 10 minutes at 25° C. […] Nonspecific activity was defined as radioactivity retained on the filters following incubation of samples with buffer alone (no enzyme). […]

[3] = target: T3, C-src kinase (Homo sapiens, UniProt P12931); assay: C-src kinase assay; conditions: poly GluTyr substrate, 10 min, room temperature; read-out: C-src TK inhibition, IC50
T3 construct: made in house; host or cells: baculovirus infected insect cells
T3 sequence (P12931 whole entry): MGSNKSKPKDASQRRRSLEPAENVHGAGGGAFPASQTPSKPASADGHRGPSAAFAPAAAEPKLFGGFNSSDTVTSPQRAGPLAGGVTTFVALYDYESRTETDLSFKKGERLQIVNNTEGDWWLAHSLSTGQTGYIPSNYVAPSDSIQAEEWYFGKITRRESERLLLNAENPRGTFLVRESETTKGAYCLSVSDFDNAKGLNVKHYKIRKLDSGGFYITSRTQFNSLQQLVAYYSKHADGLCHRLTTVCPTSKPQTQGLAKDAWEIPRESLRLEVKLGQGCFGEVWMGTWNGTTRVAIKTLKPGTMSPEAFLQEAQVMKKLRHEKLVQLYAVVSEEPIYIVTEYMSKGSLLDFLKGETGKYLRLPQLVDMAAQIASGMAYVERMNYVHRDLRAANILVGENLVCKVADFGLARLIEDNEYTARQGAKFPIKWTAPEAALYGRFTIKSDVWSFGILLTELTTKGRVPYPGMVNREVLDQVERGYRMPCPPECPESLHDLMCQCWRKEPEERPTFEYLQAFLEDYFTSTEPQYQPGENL
Description: The antibody, covalently linked to 0.65-μm latex beads, is added to a suspension of insect cell lysis buffer comprised of 150 mM NaCl, 50 mM Tris pH 7.5, 1 mM DTT, 1% NP-40, 2 mM EGTA, 1 mM sodium vanadate, 1 mM PMSF, 1 μg/mL each of leupeptin, pepstatin, and aprotinin. […] At the end of the lysate incubation, the beads are rinsed 3 times in lysis buffer, resuspended in lysis buffer containing 10% glycerol, and frozen. These latex beads are thawed, rinsed 3 times in assay buffer which is comprised of 40 mM tris pH 7.5, 5 mM MgCl2, and suspended in the same buffer. […] The reaction is started at room temperature by addition of the ATP and quenched 10 minutes later by the addition of 125 μL of 30% TCA, 0.1M sodium pyrophosphate for 5 minutes on ice. The plate is then filtered and the wells washed with two 250-μL aliquots of 15% TCA, 0.1M pyrophosphate. The filters are punched, counted in a liquid scintillation counter, and the data examined for inhibitory activity in comparison to a known inhibitor such as erbstatin. The method is described more fully in J. Med. Chem., 37:598-609 (1994).

IC50 [1]: 70 nM | IC50 [2]: 63 nM | IC50 [3]: 15 nM
SMILES: CC[N+]([O-])(CC)CCOc1ccc(Nc2ncc3cc(-c4c(Cl)cccc4Cl)c(=O)n(C)c3n2)cc1 [Example 43, 6-(2,6-Dichlorophenyl)-2-[4-[2-(diethylamino)ethoxyl-thenyl]aminol-8-methyl-pyridor2,3-d]pyrimidin-7 (8H)-one, N^ω -oxide]
